In PMC7397269, “Synthesis and Evaluation of New Coumarin Derivatives as Antioxidant, Antimicrobial, and Anti-Inflammatory Agents” (Molecules, 2020):
Values after ≈ are worked out from the molar mass of the structure shown.

Assays:
[1] = test system: Staphylococcus aureus ATCC 29213; assay: Agar well diffusion, S. aureus; assay type: cell-based; details: ATCC29213, 100 μL of 10 mg/mL in DMSO, read-out: diameter of inhibition zone, SA
Summary of the method: (§1)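 Agar well diffusion; NA for bacteria, SDA for yeast; inoculum 1 × 10^8 CFU/mL bacteria, 1 × 10^6 CFU/mL yeast. 100 μL of 10 mg/mL compound in DMSO per 10 mm well. 24 h, 37 °C; zone diameter, mm, n=3.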

[2] = test system: Pseudomonas aeruginosa ATCC 27,953; assay: Agar well diffusion, P. aeruginosa; assay type: cell-based; details: ATCC27, 100 μL of 10 mg/mL in DMSO, read-out: diameter of inhibition zone, PA
Summary of the method: as §1

[3] = test system: Candida albicans NRRL Y-477; assay: Agar well diffusion, C. albicans; assay type: cell-based; details: NRRLY477, 100 μL of 10 mg/mL in DMSO, read-out: diameter of inhibition zone, CA
Summary of the method: as §1

[4] = test system: Staphylococcus aureus ATCC 29213; assay: MIC, two-fold serial dilution, S. aureus; assay type: cell-based; details: ATCC29213, read-out: Minimum inhibitory concentration, SA
Summary of the method: (§2)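 Compounds with agar-well inhibition zone >16 mm went on to two-fold broth dilution at final 1000, 500, 250 and 125 μg/mL. Inocula were 1×10^8 CFU/mL for bacteria and 1×10^6 CFU/mL for yeast (0.1 mL per 5 mL), incubated 37 °C for 24 h. MIC taken as the lowest concentration with no growth.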

[5] = test system: Bacillus megaterium ATCC 9885; assay: MIC, two-fold serial dilution, B. megaterium; assay type: cell-based; details: Priestia megaterium, ATCC9885, read-out: Minimum inhibitory concentration, BM
Summary of the method: as §2

[6] = test system: Pseudomonas aeruginosa ATCC 27,953; assay: MIC, two-fold serial dilution, P. aeruginosa; assay type: cell-based; details: ATCC27, read-out: Minimum inhibitory concentration, PA
Summary of the method: as §2

[7] = test system: Candida albicans NRRL Y-477; assay: MIC, two-fold serial dilution, C. albicans; assay type: cell-based; details: NRRLY477, read-out: Minimum inhibitory concentration, CA
Summary of the method: as §2

trypsin = assay: Proteinase-inhibitory activity; assay type: biochemical; details: 250 µg/mL; mean ± SD (n = 3)
Summary of the method: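 Trypsin (0.06 mg per 2 mL, 20 mM Tris-HCl pH 7.4) was preincubated 5 min with test sample at 250 µg/mL, then 0.8% casein was added for 20 min. Perchloric acid stopped the reaction and supernatant absorbance was read at 280 nm. % inhibition is relative to the no-sample control, in triplicate.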

COX-1 = target: T1, COX-1 (Homo sapiens, UniProt P23219); assay: COX-1 inhibition, Cayman assay kit; assay type: biochemical; details: mean of two determinations
T1 construct: purchased Cayman Chemical 701070

COX-2 = target: T2, COX-2 (Homo sapiens, UniProt P35354); assay: COX-2 inhibition, Cayman assay kit; assay type: biochemical
T2 construct: purchased Cayman Chemical 701080
T2 sequence (P35354 18-604): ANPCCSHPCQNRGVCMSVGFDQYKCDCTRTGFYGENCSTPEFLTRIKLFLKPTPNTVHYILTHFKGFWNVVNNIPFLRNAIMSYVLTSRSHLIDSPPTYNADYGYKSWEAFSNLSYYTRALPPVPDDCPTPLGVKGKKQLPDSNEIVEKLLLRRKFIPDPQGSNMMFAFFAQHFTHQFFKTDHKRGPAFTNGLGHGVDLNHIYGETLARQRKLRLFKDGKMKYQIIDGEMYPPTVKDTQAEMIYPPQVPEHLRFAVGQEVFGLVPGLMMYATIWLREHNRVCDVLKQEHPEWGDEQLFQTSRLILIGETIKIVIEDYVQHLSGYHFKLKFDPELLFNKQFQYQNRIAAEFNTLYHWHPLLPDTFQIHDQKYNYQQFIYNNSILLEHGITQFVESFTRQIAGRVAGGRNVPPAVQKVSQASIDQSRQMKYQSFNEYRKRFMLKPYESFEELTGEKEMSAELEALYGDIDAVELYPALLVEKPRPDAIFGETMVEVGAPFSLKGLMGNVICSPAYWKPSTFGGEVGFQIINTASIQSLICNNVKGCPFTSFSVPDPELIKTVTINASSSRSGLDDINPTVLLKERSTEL

T1 sequence (P23219 24-599): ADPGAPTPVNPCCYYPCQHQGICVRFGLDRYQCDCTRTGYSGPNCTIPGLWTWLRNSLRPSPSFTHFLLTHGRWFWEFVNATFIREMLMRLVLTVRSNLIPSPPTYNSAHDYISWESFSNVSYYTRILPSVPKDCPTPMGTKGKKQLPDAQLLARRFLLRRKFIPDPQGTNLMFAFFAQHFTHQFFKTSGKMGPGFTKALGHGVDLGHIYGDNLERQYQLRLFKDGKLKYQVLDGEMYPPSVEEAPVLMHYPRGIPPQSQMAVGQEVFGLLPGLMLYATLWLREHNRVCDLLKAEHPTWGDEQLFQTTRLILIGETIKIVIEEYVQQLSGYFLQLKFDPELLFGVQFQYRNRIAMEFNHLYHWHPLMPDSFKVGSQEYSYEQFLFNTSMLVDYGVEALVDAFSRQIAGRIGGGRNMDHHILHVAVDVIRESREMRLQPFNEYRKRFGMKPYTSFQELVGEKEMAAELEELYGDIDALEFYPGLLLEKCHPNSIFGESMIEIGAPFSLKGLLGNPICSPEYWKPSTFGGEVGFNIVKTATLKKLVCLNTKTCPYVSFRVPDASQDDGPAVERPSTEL

**Q.** For O=c1oc2ccc(Cl)cc2c(O)c1S(=O)(=O)Nc1ccc(S(=O)(=O)Nc2ncccn2)cc1 [7c, 6-Chloro-4-hydroxy-2-oxo-N-(4-(N-(pyrimidin-2-yl)sulfamoyl)phenyl)-2H-chromene-3-sulfonamide], which zone of inhibition at 10000 µg/mL [1] is on record?
**A.** The zone of inhibition at 10000 µg/mL was 30 mm.

**Q.** What about the zone of inhibition at 10000 µg/mL [2] of the same molecule?
**A.** The zone of inhibition at 10000 µg/mL was 24 mm.

**Q.** And the zone of inhibition at 10000 µg/mL [3]?
**A.** Its zone of inhibition at 10000 µg/mL is 27 mm.

**Q.** And the MIC [4]?
**A.** Its MIC is 125 µg/mL (≈ 246 µM).

**Q.** What about the MIC [5] of the same molecule?
**A.** The MIC was 125 µg/mL (≈ 246 µM).

**Q.** What about the MIC [6] of the same molecule?
**A.** Its MIC is 250 µg/mL (≈ 491 µM).

**Q.** What about the MIC [7] of the same molecule?
**A.** The MIC was 125 µg/mL (≈ 246 µM).

**Q.** And the “% Inhibition (proteinase)” value (trypsin)?
**A.** The value was 8.9 ± 2.04%.

**Q.** What about the IC50 (COX-1) of the same molecule?
**A.** The IC50 was 62.3 µM.

**Q.** And the IC50 (COX-2; mean of two determinations)?
**A.** Its IC50 is 19.9 µM.

**Q.** And the “SI, selectivity index (COX-1/COX-2)” value (COX-2; ratio of COX-1/COX-2 IC50)?
**A.** Its value is 3.12.

**Q.** What about the melting point of the same molecule?
**A.** Its melting point is 230 to 232 °C.
